The values below come from PMC9570995, “Design, Synthesis, and Biological Evaluation of Novel Dihydropyridine and Pyridine Analogs as Potent Human Tissue Nonspecific Alkaline Phosphatase Inhibitors with Anticancer Activity: ROS and DNA Damage-Induced Apoptosis” (Molecules, 2022).

Holding throughout (format): cell-based
The subject of assay [1] is Cervical Cancer (HeLa) Cells. Briefly: MTT cell viability assay, HeLa. The conditions noted are these: Homo sapiens, HeLa. The text has this:
(§1) An MTT assay was used to determine the viability of the cells under examination in the desired medium. The mitochondrial dehydrogenase enzyme of the viable cells has a key role in the conversion of the yellow water-soluble substrate 3-(4,5-dimethylthiazol-2-y1)-2,5 diphenyl tetrazolium bromide (MTT) into a dark blue formazan product that is insoluble in water. The anticancer activity of the novel synthetic derivatives (4a–4k) was investigated through an MTT assay, with small modifications following the already published protocols against cancer cell lines (HeLa and MCF-7), using cisplatin as a reference drug. The cytotoxic effect of the tested compounds at 100 µM concentration was determined and represented as the percent growth inhibition compared with the untreated control cells. The first series comprised dihydropyridines analogous from 4a–4f with various substitution patterns on the phenyl ring. […] It is presumed that the 1-naphthyl containing compound 4c was locked in a configuration that is not favorable for an interaction with amino acid residues.
(§2) The anti-proliferative activity of the synthesized compounds was determined in MCF-7 and HeLa cells by an MTT cell viability assay, as described earlier. Briefly, we seeded 1 × 10^4 cells/well in a sterile 96-well culture microtiter plate and incubated them in a 5% CO2 incubator at 37 °C for 24 h. […] After 24 h, the cells were treated with 0.2 mg/mL of MTT reagent for 4 h. We added 10% acidified SDS (sodium dodecyl sulfate) solubilizing solution in propanol (1:1) to solubilize the formazan crystals. After 30 min at 37 °C, the plate was placed on a gyratory shaker to completely dissolve the formazan crystals. The plate was placed on a microplate reader to measure the optical density at 570 nm. The IC50 values were calculated from three independent experiments as previously reported.
A general note: Tetrazolium dyes change colour on reduction, which living cells bring about.

Another assay concerns MCF-7 cells. Briefly: Cell cycle analysis by flow cytometry (PI). To be noted: 24 h, IC50 and 2 × IC50. The text has this: The progression of the cell cycle is started by a cascade of intracellular signaling pathways to drive progression from the G0 phase to the G1 phase. The mammalian cell cycle involves an overexpression of D-type cyclins during the progression from the G0/G1 to the S-phase and eventually contributes to the development of cancer. Progression is controlled by D-type cyclins after binding with cyclin-dependent kinases (CDKs) and negatively controlled by binding to CDK inhibitors. CDK4/6 is involved in the G1/S transition of the cell cycle and has an important role in breast cancer. Retinoblastoma tumor suppressor protein (pRb) is deactivated through a CDK4/6-mediated phosphorylation reaction. In fact, cyclin D1/CDK4/6 is a mandatory controller of pRb phosphorylation. This phosphorylation deactivates the pRb that leads to cell proliferation.
PI was used as a fluorescent probe by flow cytometry through small modifications in a published method. The difference in DNA content between the G0/G1, S (synthesis), and G2/M phases can be compared with a control sample. The assay was conducted by seeding 3 × 10^5 cells/well and incubating them for 24 h in a CO2 incubator at 37 °C. […] After harvesting the cells as directed, these cells were centrifuged at 3000 rpm for 5 min and washed with sterile PBS. […] The obtained results were analyzed by using the BD Accuri^TM C6 and GraphPad Prism 5.01 software.

The subject of assay [2] is Breast Cancer (MCF-7) Cells. The assay is described as follows: MTT cell viability assay, MCF-7. The conditions noted are these: Homo sapiens.
Source text: as §1, §2

The next assay deals with normal BHK-21 cells. Briefly: MTT assay on normal cells. To be noted: Mesocricetus auratus, rapidly growing non-cancerous cells.
Another assay has as its system HeLa cells. Briefly: Fluorescence microscopy of cytotoxic and pro-apoptotic effect (PI and DAPI staining). An excerpt:
Change in the cellular morphology, initially characterized by cell shrinkage, chromatin condensation, and degradation of the nuclear and plasma membranes, was mostly observed in the programmed cell death. The propidium iodide (PI) staining agent is a fluorescent molecule that penetrates the cancerous cells through ruptured membranes and binds with DNA. Similarly, the subsequent image offers red nuclei contrary to the dark background that indicates the counts of dead cells. On the other hand, viable cells have an intact cell membrane that resists the penetration of the staining agent (PI). Herein, the anticancer potential of the highly functionalized small dihydropyridine scaffold 4d was noticed through the apoptosis induction pathway based on various mechanisms. […] The detachment of cells and appearance of yellow intense fluorescence images on the dark background specify the distribution of PI into the dying cells in a dose-reliant mode.
The apoptotic feature, particularly the condensation of nuclear material, was also observed through the fluorescence microscopic evaluation of compound 4d-treated HeLa cells using 4′,6-diamidino-2-phenylindole (DAPI) as a staining agent. […] The fluorescence intensity enhances many folds upon binding with DNA. The extent of damage in the compound-treated cells was easily measured through an increase in the fluorescence emission intensity. […]

As to `N#CC1=C(N)N(Cc2ccccc2)C(N)=C(C#N)C1c1ccc2ccccc2c1` [Compound 4d, 2,6-Diamino-1-benzyl-4-(naphthalen-2-yl)-1,4-dihydropyridine-3,5-dicarbonitrile], the inhibition at 100 µM was determined as 82.7% in assay [1] (100 µM, 24 h) and 85.8% in assay [2] (MCF7, 100 µM, 24 h). Further, the IC50 in assay [1] (unit given, read-out: Cervical Cancer (HeLa) Cells IC50 Values ± SEM) is 53.47 ± 0.5 µM; in assay [2] (MCF7, unit given, read-out: Breast Cancer (MCF-7) Cells IC50 Values ± SEM), 38.7 ± 2.31 µM; with normal BHK-21 cells, 71.1 ± 3.18 µM; in the assay on HeLa cells (Homo sapiens, read-out: IC50 (cytotoxic potential, fluorescence microscopy with PI staining)) it was 28.3 µM. Besides, the “phase of cell cycle arrest” value in the assay on MCF-7 cells was “G0/G1 phase”. The “morphological change of treated cells (DAPI staining)” value in the assay with HeLa cells (IC50 and 2 × IC50) is “cellular shrinkage and nuclear condensation in a dose-dependent manner”.

In general, inhibition refers to the percentage by which the read-out fell short of the control. The term IC50 denotes the concentration at which inhibition is half-maximal.
